Laboratory results reported in patent publication US20240334934A1, “FUNGICIDE MIXTURE” (priority 2021, published 2024).

Key:
[1] = system: Gibberella zeae (Fusarium graminearum); assay: microbe, parasite or virus in culture; assay type: cell-based; details: read-out: % Efficacy
[2] = system: Microdochium nivale; assay: Efficacy of mixtures of streptimidone and CtmC, liquid culture in PDB, optical density 620 nm; assay type: cell-based; details: read-out: % Efficacy
[3] = system: Fusarium virguliforme isolate 1; assay: Efficacy of purified CtmC, 96-well growth assay, IC50 from OD620; assay type: cell-based
Protocol: (§1) A Fusarium virguliforme spore suspension of 25′000 spores/ml was produced in PDB (potato dextrose broth) medium supplemented with 0.3% agar. Isolates of the species originate from Syngenta internal collection (CH).
(§2) CtmC was dissolved in DMSO (Dimethylsulfoxid) to a final concentration of 1000 ppm to create a stock solution. Different dilutions of CtmC were created in DMSO: 1000 ppm, 330 ppm, 110 ppm, 37 ppm, 12 ppm and 4.1 ppm. 10 μl of DMSO or CtmC solution were transferred to a 96-well-dilution plate and diluted 10-fold with 90 μl 0.025% Tween 20/1H2O solution. Out of the dilution plate, 10 μl were transferred to a 96 well assay plate and 90 μl spore suspension were added to each well.
(§3) 96 Well plates were then incubated for 72 h at 24° C., 90% relative humidity in the dark. Plates were evaluated by reading the OD at 620 nm.
(§4) Assays were run on two independent isolates for the species. Each isolate was tested twice (assay 1 and assay 2) and each isolate x fungicide rate combination was duplicated on the test plates.
(§5) The OD620 was averaged over the two wells and used to calculate IC50 values (fungicide concentration resulting in 50% inhibition of growth) with the program GraphPad prism, resulting in 4 independent IC50 values. No significant differences were found between both isolates tested: […]

[4] = system: Fusarium virguliforme isolate 2; assay: as above; assay type: cell-based
Protocol: as §1, §2, §3, §4, §5

[5] = system: Puccinia triticina; assay: Greenhouse test, wheat, preventative; assay type: in vivo; details: 2 days preventative, EC50 formulation
Protocol: (§6) Purified Cyclothiazomycin C (CtmC) was formulated as an EC50 formulation. The formulation was diluted in water at rates of 100 ppm and 50 ppm of CtmC. Plants were treated with 400 L/ha of the diluted product supplemented with an adjuvant to improve sticking and spreading, resulting in a treatment of 40 g/ha and 20 g/ha of CtmC, respectively.
Puccinia triticina (also known as recondata, Brown rust on wheat). 2-week old wheat plants cv. Arina are sprayed in a spray chamber with the formulated test compound diluted in water. […] After an incubation period of 1 day at 20° C. and 95% rh, the inoculated test plants are kept at 20° C./18° C. (day/night) and 60% rh in a greenhouse. The percentage leaf area covered by disease is assessed when an appropriate level of disease appears on untreated check plants (12-14 days after application).

[6] = system: Botrytis cinerea; assay: Greenhouse test, tomato, preventative; assay type: in vivo; details: 2 days preventative, EC50 formulation
Protocol: as §6
Botrytis cinerea tomato/preventative (Botrytis on tomato) 4-week old tomato plants cv. Roter Gnom are treated in a spray chamber with the formulated test compound diluted in water. The test plants are inoculated by spraying them with a spore suspension two days after application. The inoculated test plants are incubated at 20° C. and 95% rh in a greenhouse and the percentage leaf area covered by disease is assessed when an appropriate level of disease appears on untreated check plants (5-6 days after application).

[7] = system: Corynespora cassiicola K5577; assay: Efficacy of purified CtmC alone in-vitro, 96 well plate, OD 620 nm; assay type: cell-based; details: CtmC 10 ppm
Protocol: (§7) CtmC was dissolved in DMSO (Dimethylsulfoxid) to a final concentration of 1000 ppm to create a stock solution. A second dilutions of 1:10 was made in water+0.025% Tween 20. From this second dilution 10 μl are dispensed into a 96 well plate. To each well, 90 μl of medium (PDB—potato dextrose broth, plus 0.3% agar) with fungal spores are added and mixed, resulting in final CtmC concentrations of 10 ppm. All wells containing CtmC also contain DMSO (1%) and Tween 20 (0.0025%). In the following table 4 some of the species were tested using several distinct isolates (internal strain number indicated) to understand variability among different isolates of the same species sampled in different locations, producing different mycotoxins (genus Fusarium), or expressing various tolerances to fungicides of the SDHI (Succinate Dehydrogenase Inhibitor), SBI (Sterol Biosynthesis Inhibitors) and/or QoI (quinone outside inhibitors) classes (example: Zymoseptoria tritici). Different isolates had variable inoculum density and number of biological repicas, as indicated.

[8] = system: Fusarium culmorum K5488; assay: as above; assay type: cell-based; details: CtmC 10 ppm
Protocol: as §7

[9] = system: Fusarium tricinctum K7454; assay: as above; assay type: cell-based; details: CtmC 10 ppm
Protocol: as §7

[10] = system: Zymoseptoria tritici K6105; assay: as above; assay type: cell-based; details: CtmC 10 ppm
Protocol: as §7

[11] = system: Zymoseptoria tritici K6420; assay: as above; assay type: cell-based; details: CtmC 10 ppm
Protocol: as §7

[12] = system: Fusarium langsethiae K5670; assay type: cell-based; details: CtmC 10 ppm
[13] = system: Gibberella zeae K6102; assay type: cell-based; details: CtmC 10 ppm
[14] = system: Gibberella zeae K6934; assay type: cell-based; details: CtmC 10 ppm
[15] = system: Pyrenophora tritici-repentis K6186; assay: Efficacy of purified CtmC alone in-vitro, 96 well plate, OD 620 nm; assay type: cell-based; details: CtmC 10 ppm, mycelium inoculum
Protocol: as §7, with “To each well, 90 μl of medium (PDB—potato dextrose broth, plus 0.3% agar) with fungal spores are added and mixed, resulting in final CtmC concentrations of 10 ppm.” left out

[16] = 72 h at 24° C., 25'000 spores/ml

Question: With `C=C1NC(=O)CNC(=O)[C@H](CCCCN)NC(=O)[C@@]2(C)NC(=O)/C(=C/C)NC(=O)[C@H]3CSC(=N3)[C@@H](CC(N)=O)CC(=O)c3ccc(nc3[C@@H](C)NC(=O)[C@@H]3CCCN3C1=O)-c1nc(cs1)C1=N[C@H](CS1)C(=O)NC(=C)c1nc(cs1)-c1nc(cs1)C1=N[C@@H](CS1)C(=O)N[C@@H](C(=O)O)CS2` [CtmC, cyclothiazomycin C] as the molecule, how does the Emax at 20 ppm [1] read?
Answer: The Emax at 20 ppm was 37%.

Question: And the Emax at 0.0333 ppm [2]?
Answer: Its Emax at 0.0333 ppm is 19%.

Question: What about the Emax at 0.1 ppm [2] of the same molecule?
Answer: The Emax at 0.1 ppm was 42%.

Question: And the “IC50 (ppm) Assay-1” value [3, 16]?
Answer: Its value is 0.8 ppm.

Question: And the “IC50 (ppm) Assay-2” value [3, 16]?
Answer: Its value is 1.6 ppm.

Question: What about the “IC50 (ppm) average” value ([3]; average of Assay-1 and Assay-2) of the same molecule?
Answer: Its value is 1.2 ppm.

Question: What about the IC50 ([3]; both tested isolates) of the same molecule?
Answer: The IC50 was “ca. 1 ppm”.

Question: And the “IC50 (ppm) Assay-1” value [4, 16]?
Answer: Its value is 0.7 ppm.

Question: And the “IC50 (ppm) Assay-2” value [4, 16]?
Answer: The value was 1.5 ppm.

Question: And the “IC50 (ppm) average” value ([4]; average of Assay-1 and Assay-2)?
Answer: Its value is 1.1 ppm.

Question: What about the IC50 ([4]; both tested isolates) of the same molecule?
Answer: Its IC50 is “ca. 1 ppm”.

Question: And the “efficacy 20 g/ha (%)” value ([5]; 20 g/ha)?
Answer: Its value is 81%.

Question: What about the “efficacy 40 g/ha (%)” value ([5]; 40 g/ha) of the same molecule?
Answer: Its value is 81%.

Question: And the “efficacy 20 g/ha (%)” value ([6]; 20 g/ha)?
Answer: Its value is 30%.

Question: What about the “efficacy 40 g/ha (%)” value ([6]; 40 g/ha) of the same molecule?
Answer: The value was 47%.

Question: What about the “efficacy (%)” value [7] of the same molecule?
Answer: The value was 86%.

Question: And the “optical density at 620 nm” value ([7]; blank 0.047, untreated 0.427)?
Answer: The value was 0.100.

Question: And the “efficacy (%)” value [8]?
Answer: The value was 52%.

Question: What about the “optical density at 620 nm” value ([8]; blank 0.046, untreated 0.374) of the same molecule?
Answer: Its value is 0.203.

Question: What about the “efficacy (%)” value [9] of the same molecule?
Answer: Its value is 65%.

Question: And the “optical density at 620 nm” value ([9]; blank 0.050, untreated 0.463)?
Answer: The value was 0.195.

Question: What about the “efficacy (%)” value [10] of the same molecule?
Answer: The value was 99%.

Question: And the “optical density at 620 nm” value ([10]; blank 0.044, untreated 0.354)?
Answer: Its value is 0.046.

Question: What about the “efficacy (%)” value [11] of the same molecule?
Answer: The value was 93%.

Question: What about the “optical density at 620 nm” value ([11]; blank 0.048, untreated 0.257) of the same molecule?
Answer: Its value is 0.064.

Question: And the “efficacy (%)” value [12]?
Answer: The value was 94%.

Question: And the “optical density at 620 nm” value ([12]; blank 0.053, untreated 0.346)?
Answer: Its value is 0.072.

Question: What about the “efficacy (%)” value [13] of the same molecule?
Answer: Its value is 52%.

Question: And the “optical density at 620 nm” value ([13]; blank 0.044, untreated 0.733)?
Answer: The value was 0.377.

Question: What about the “efficacy (%)” value [14] of the same molecule?
Answer: The value was 48%.

Question: What about the “optical density at 620 nm” value ([14]; blank 0.052, untreated 0.641) of the same molecule?
Answer: The value was 0.361.

Question: What about the “efficacy (%)” value [15] of the same molecule?
Answer: The value was 90%.

Question: And the “optical density at 620 nm” value ([15]; blank 0.046, untreated 0.508)?
Answer: Its value is 0.094.
